Source: PubChem BioAssay (NCI)
Several values for one entry are separate records, joined by “and”; a condition that tells them apart may be missing. Equal entries are not always repeated.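 Exposure lasted 48 hours, with cells grown in 96-well plates and compounds tested at five concentrations. GI50: concentration for 50% inhibition of growth. TGI is the concentration that stops growth completely.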

Tests used:
Experiment in all cases: NCI-60 cell line screen, 48 h
NCI-H226 lung = tested on: NCI-H226 lung
SF-539 CNS = tested on: SF-539 CNS
SK-OV-3 ovarian = tested on: SK-OV-3 ovarian
MALME-3M melanoma = tested on: MALME-3M melanoma
HCC-2998 colon = tested on: HCC-2998 colon
OVCAR-5 ovarian = tested on: OVCAR-5 ovarian
A549 NSCLC = tested on: A549 NSCLC
UACC-62 melanoma = tested on: UACC-62 melanoma
KM12 colon = tested on: KM12 colon
SN12C renal = tested on: SN12C renal

| SMILES | TGI (NCI-H226 lung) [µM] | TGI (SF-539 CNS) [µM] | TGI (SK-OV-3 ovarian) [µM] | TGI (MALME-3M melanoma) | TGI (HCC-2998 colon) [µM] | TGI (OVCAR-5 ovarian) [µM] | TGI (A549 NSCLC) [µM] | TGI (UACC-62 melanoma) [µM] | TGI (KM12 colon) [µM] | TGI (SN12C renal) [µM] | GI50 (NCI-H226 lung) | GI50 (SF-539 CNS) | GI50 (SK-OV-3 ovarian) | GI50 (MALME-3M melanoma) | GI50 (HCC-2998 colon) | GI50 (OVCAR-5 ovarian) | GI50 (A549 NSCLC) | GI50 (UACC-62 melanoma) [µM] | GI50 (KM12 colon) | GI50 (SN12C renal) |
| --- | --- | --- | --- | --- | --- | --- | --- | --- | --- | --- | --- | --- | --- | --- | --- | --- | --- | --- | --- | --- |
| COc1ccc(-c2c(C3=NCCCN3)nnn2-c2ccc([N+](=O)[O-])cc2)cc1 | > 100 | > 100 | > 100 | > 100 µM | > 100 | > 100 | > 100 | > 100 | > 100 | > 100 |  |  |  |  |  |  |  |  |  |  |
| O=C(/C=C/c1cccc(O)c1)c1cccc(-n2cc(-c3ccc4ccccc4c3)[nH]c2=O)c1 | 8.91 | 2.89 | 6.73 | 6.37 µM | 5.11 | 3.6 | 12.7 | 4.92 | 2.45 | 3.56 | 2.43 µM | 1.55 µM | 2.15 µM | 2.08 µM | 2.13 µM | 1.89 µM | 3.38 µM | 1.8 | 1.21 µM | 1.44 µM |
| O=C(Cl)C1=C(c2ccccc2)C1c1ccccc1 (stereo not given) | > 100 | > 100 | > 100 | > 100 µM | > 100 | > 100 | > 100 | > 100 | > 100 | > 100 |  |  |  |  |  |  |  |  |  |  |
| Fc1ccc2nc(-c3cc(-c4ccc5c(c4)OCO5)n[nH]3)[nH]c2c1 | 40.5 | 31.2 | 26.5 | > 100 µM | > 72.8 | > 100 | 13.8 | > 52.2 | > 32 | > 100 | 3.92 µM | 3.24 µM | 7.95 µM | 2.75 µM | 5.56 µM | 35.5 µM | 2.51 µM | 4.37 | 2.49 µM | 4.59 µM |
| O=C(CC1(O)C(=O)Nc2c(Cl)ccc(Cl)c21)c1ccc(Cl)cc1Cl (stereo not given) | 30.5 | 39.8 | 46.6 | 34.9 µM | 32.2 | 35.6 | 47.2 | 34.9 | 30.9 | 30.5 |  |  |  |  |  |  |  |  |  |  |
| COc1cccc(COc2cc(-n3cnc4ccccc43)sc2C(N)=O)c1 | > 25 | > 25 | > 25 | > 25 µM | > 25 | > 25 | > 25 | > 25 | > 25 | > 25 | > 20.5 µM | 16 µM | > 16.2 µM | > 25 µM | > 25 µM | 14.2 µM | > 21.7 µM | 18.1 | 2.42 µM | > 20.5 µM |
| COc1cc(C2c3cc4c(cc3[C@@H](Nc3ccc5c(c3)OCCO5)C3COC(=O)[C@H]23)OCO4)cc(OC)c1O (stereo not given in full) | 1.94 | 5.07 | 8.7 | 26.4 µM | 3.65 | 16.6 | 7.15 | 7.19 | 10.9 | 10.2 |  |  |  |  |  |  |  |  |  |  |
| C=CC1=C(C)C2=NC1=CC1=NC(=CC3=C(C)C4=C(O)[C@H](C(=O)OC)C(=C5NC(=C2)[C@@H](C)[C@@H]5CCC(=O)O)C4=N3)C(CC)=C1C | > 100 | 4.63 | > 40 | > 100 µM | 4.23 | > 23.7 | > 43.9 | 7.99 | > 20.5 | > 100 |  |  |  |  |  |  |  |  |  |  |
| O=C1[C@H]2ON(c3ccccc3)C(c3ccco3)[C@H]2C(=O)N1c1ccc(Cc2ccc(N3C(=O)[C@@H]4ON(c5ccccc5)C(c5ccco5)[C@@H]4C3=O)cc2)cc1 (stereo not given in full) | > 100 | > 100 | > 100 | > 100 µM | > 100 | > 100 | > 100 | > 100 | > 100 | > 100 |  |  |  |  |  |  |  |  |  |  |
| O=S1CSSC1 | 71.7 | 40.1 | 53.3 | > 100 µM | 45.8 | 36.7 | > 100 | 25.8 | 55.8 | 24.4 |  |  |  |  |  |  |  |  |  |  |
| COc1ccc(-c2cnoc2-c2cc(OC)c3c(c2)OCCO3)cc1 | > 94.4 | 0.0907 | 2.8 | > 100 µM | 22 | > 86.7 | > 100 | > 100 | 16 | > 94.3 | 0.738 µM | 0.0235 µM | 0.0312 µM | 39.8 µM | 0.083 µM | 0.0617 µM | 0.048 µM | < 0.015 | < 0.0162 µM | 0.402 µM |
| Nc1cc(-c2ccc(Cl)cc2)nn1-c1nnc(/C=C/c2ccco2)c(=O)[nH]1 | 67.4 | 22.4 | > 86.2 | 54.6 µM | > 84.5 | > 90.5 | 22.2 | > 58.6 | > 56.6 | > 100 | 10.1 µM | 4.4 µM | 6.09 µM | 7.44 µM | 6.6 µM | 10.9 µM | 3.46 µM | 5.45 | 4.05 µM | 18.5 µM |
| CC(C)(C)c1ccc(OC2CCO2)cc1 (stereo not given) | 92.8 | 98.6 | > 100 | > 100 µM | 94.1 | 98.7 | > 100 | > 100 | 70.2 | 38.1 |  |  |  |  |  |  |  |  |  |  |
| Cc1cccc(C)c1N1C(=O)C(=O)C(c2nc3ccccc3s2)C(=Nc2cccc3c(=O)[nH][nH]c(=O)c23)C1=O (stereo not given) | > 100 | > 100 | > 100 | > 100 µM | > 100 | > 100 | > 100 | > 100 | > 100 | > 100 |  |  |  |  |  |  |  |  |  |  |
| Cc1ccc(-n2nc(C(C)(C)C)cc2NC(=O)NCc2cc(F)ccc2Oc2ccc3c(cnn3CCO)c2)cc1 | > 100 | > 93.1 | > 83.9 | > 10 µM and 1.73 µM | > 48.8 | > 31.6 | > 100 | > 39.8 | > 35.8 | > 100 | 0.562 µM and 2.75 µM | > 10 µM and 6.83 µM | > 10 µM and 9.24 µM | 0.396 µM and 0.305 µM | > 10 µM and 5.39 µM | > 10 µM and 1.89 µM | > 10 µM and 11.7 µM | 0.667 | 0.611 µM and 1.22 µM | > 10 µM and 6.27 µM |
| CC(C)Oc1ccc(C(=O)Cn2ccnc2)cc1-n1c(CN2CCN(C(=O)COc3ccc(Cl)cc3)CC2)nc2ccccc2c1=O | 38.9 | 30.4 | 76.2 | 30.3 µM | 31 | 42.4 | > 72.1 | 28.9 | 36.2 | 33.6 | 14.5 µM | 14.4 µM | 20 µM | 12.5 µM | 15.7 µM | 17.6 µM | 18.4 µM | 12.8 | 17 µM | 14.6 µM |
